Laboratory results taken from patent publication US20200392161A1, “SHP2 PHOSPHATASE INHIBITORS AND METHODS OF USE THEREOF” (Relay Therapeutics, Inc., priority 2018, published 2020).
pIC50: −log10 of the molar value. Where a name gives a salt, the structure may show the parent alone.

Molecular target: T1, SHP2 (Homo sapiens, UniProt Q06124)
T1 sequence (Q06124 1-593): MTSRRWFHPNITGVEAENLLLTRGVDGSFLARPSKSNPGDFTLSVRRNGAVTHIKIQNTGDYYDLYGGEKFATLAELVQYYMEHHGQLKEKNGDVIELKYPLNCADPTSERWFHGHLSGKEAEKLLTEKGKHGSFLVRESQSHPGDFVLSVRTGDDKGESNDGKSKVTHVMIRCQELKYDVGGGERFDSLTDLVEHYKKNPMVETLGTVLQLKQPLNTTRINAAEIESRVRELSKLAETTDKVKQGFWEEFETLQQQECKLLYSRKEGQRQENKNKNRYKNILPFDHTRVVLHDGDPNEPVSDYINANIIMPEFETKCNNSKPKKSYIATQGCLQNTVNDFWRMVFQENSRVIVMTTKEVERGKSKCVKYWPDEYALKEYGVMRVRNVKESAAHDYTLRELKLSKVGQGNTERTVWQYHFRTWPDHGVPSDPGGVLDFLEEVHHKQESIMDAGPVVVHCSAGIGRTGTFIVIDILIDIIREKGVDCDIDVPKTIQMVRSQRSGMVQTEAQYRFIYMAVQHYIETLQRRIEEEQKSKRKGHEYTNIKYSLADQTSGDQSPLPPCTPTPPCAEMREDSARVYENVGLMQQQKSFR
Test: SHP2 allosteric inhibition assay (DiFMUP prompt fluorescence)
Assay type: biochemical
Settings: 0.25 nM SHP2, 0.5 μM IRS1_pY1172(dPEG8)pY1222 peptide, DiFMUP 100 μM
Description: SHP2 Allosteric Inhibition Assay.
SHP2 is allosterically activated through binding of bis-tyrosyl-phosphorylated peptides to its Src Homology 2 (SH2) domains. The latter activation step leads to the release of the auto-inhibitory interface of SHP2, which in turn renders the SHP2 protein tyrosine phosphatase (PTP) active and available for substrate recognition and reaction catalysis. The catalytic activity of SHP2 was monitored using the surrogate substrate DiFMUP in a prompt fluorescence assay format.
The inhibitor dose response curves were analyzed using normalized IC50 regression curve fitting with control based normalization.

pIC50 (Table 3) | Compound | also measured
3.00 to 3.30 | O=C(Nc1cc(C(F)(F)F)cc(C(F)(F)F)c1)c1csc(-c2cccc(Cl)c2Cl)n1 [Compound C3] | –
> 3.30 | O=C(O)c1csc(-c2cccc3ccccc23)n1 [Compound C2] | –
> 3.30 | COc1cc(-c2nc(Cn3cccc(C(F)(F)F)c3=O)cs2)ccc1O [Compound C21] | –
< 3.00 | O=C(O)Cc1csc(-c2cccc(Cl)c2Cl)n1 [Compound C41] | –
> 3.30 | COc1ccc(-c2nc(CSc3nccn3C3CC3)cs2)cc1OC [Compound C12] | –
< 3.00 | O=C(O)c1csc(-c2ncccc2Cl)n1 [Compound C43] | –
3.00 to 3.30 | COc1cccc(-c2nc(CSc3nncs3)cs2)c1 [Compound C9] | –
3.00 to 3.30 | c1coc(-c2nc(CSc3nncs3)cs2)c1 [Compound C8] | –
< 3.00 | COc1ccc(-c2nc(CSc3nc4nc(C)cc(C)n4n3)cs2)cc1OC [Compound C32] | –
< 3.00 | COc1cc(-c2nc(CSc3nnc(-c4ccc(C)cc4C)o3)cs2)ccc1O [Compound C34] | –
< 3.00 | COc1ccc(-c2nc(CSc3nnnn3C3CC3)cs2)cc1OC [Compound C25] | –
< 3.00 | COc1cc(-c2nc(CN(C)Cc3ccco3)cs2)ccc1O [Compound C37] | –

The remaining lines, values behind:

Compound | pIC50 (Table 3) | also measured
Cc1nc(-c2ccc(C(F)(F)F)cc2)sc1C(=O)N1CC[C@@H](N)C1 [Compound C44] | < 3.00 | –
COc1cc(-c2nc(CSc3nncn3C)cs2)ccc1O [Compound C20] | > 3.30 | –
Cn1c(N2CCC(C)(CN)CC2)nc2[nH]nc(Sc3cccc(Cl)c3)c2c1=O [Compound F8, 6-(4-(aminomethyl)-4-methylpiperidin-1-yl)-3-((3-chlorophenyl)thio)-5-methyl-1H-pyrazolo[3,4-d]pyrimidin-4(5H)-one] | – | pIC50 (Table 6): > 6.00
Cc1c(-c2ccccc2Cl)nc2sc(N3CCC(C)(N)C3)nn12 (centres unmarked) [Compound A11, 1-(6-(2-chlorophenyl)-5-methylimidazo[2,1-b][1,3,4]thiadiazol-2-yl)-3-methylpyrrolidin-3-amine formate] | – | pIC50 (Table 1): > 5.30
O=C(O)c1csc(-c2ccccc2Cl)n1 [Compound C42] | < 3.00 | –
NCC1CCN(C(=O)c2csc(-c3ccccc3F)n2)C1 (centres unmarked) [Compound C49] | < 3.00 | –
Cc1c(-c2ccccc2Cl)nc2sc(N3CCC(C)(CN)CC3)nn12 [Compound A7, (1-(6-(2-chlorophenyl)-5-methylimidazo[2,1-b][1,3,4]thiadiazol-2-yl)-4-methylpiperidin-4-yl)methanamine formate] | – | pIC50 (Table 1): > 5.30
CCOc1ccc(-c2nc(CSc3nncs3)cs2)cc1OC [Compound C23] | < 3.00 | –
COc1cc(-c2nc(CN3CCOCC3C)cs2)ccc1O (centres unmarked) [Compound C22] | < 3.00 | –
CC1(N)CCN(c2cc(=O)nc3[nH]nc(-c4cccc(Cl)c4F)n23)CC1 [Compound F2, 5-(4-amino-4-methylpiperidin-1-yl)-3-(3-chloro-2-fluorophenyl)-[1,2,4]triazolo[4,3-a]pyrimidin-7(1H)-one hydrochloride] | – | pIC50 (Table 6): < 4.70
C[C@@H]1OCC2(CCN(c3nc4[nH]nc(N5CCc6ccccc6C5)c4c(=O)n3C)CC2)[C@@H]1N [Compound F12, 6-[(3S,4S)-4-amino-3-methyl-2-oxa-8-azaspiro[4.5]decan-8-yl]-5-methyl-3-(1,2,3,4-tetrahydroisoquinolin-2-yl)-1H,4H,5H-pyrazolo[3,4-d]pyrimidin-4-one] | – | pIC50 (Table 6): > 6.00
COc1ccccc1-c1nc(C(=O)N2CCCC(C(C)N)C2)cs1 (centres unmarked) [Compound C46] | < 3.00 | –
Cn1cnnc1SCc1csc(-c2ccc3c(c2)OCO3)n1 [Compound C26] | < 3.00 | –
CC1(CN)CCN(c2cnn3c(-c4ccccc4Cl)coc23)C1 (centres unmarked) [Compound E2, (1-(3-(2-chlorophenyl)pyrazolo[5,1-b]oxazol-7-yl)-3-methylpyrrolidin-3-yl)methanamine] | – | pIC50 (Table 5): > 4.30
Nc1c(-c2cccc(Cl)c2Cl)nc2sc(N3CCNCC3)nn12 [Compound A12, 6-(2,3-dichlorophenyl)-2-(piperazin-1-yl)imidazo[2,1-b][1,3,4]thiadiazol-5-amine] | – | pIC50 (Table 1): < 4.70
CC1(CN)CCN(c2nn3cc(C(=O)N4CCCc5ncccc54)nc3s2)C1 (centres unmarked) [Compound A8, (2-(3-(aminomethyl)-3-methylpyrrolidin-1-yl)imidazo[2,1-b][1,3,4]thiadiazol-6-yl)(3,4-dihydro-1,5-naphthyridin-1(2H)-yl)methanone formate] | – | pIC50 (Table 1): < 4.70
CC1(CN)CCN(c2nn3cc(-c4cccc(Cl)c4Cl)nc3s2)CC1 [Compound A2, (1-(6-(2,3-dichlorophenyl)imidazo[2,1-b][1,3,4]thiadiazol-2-yl)-4-methylpiperidin-4-yl)methanamine formate] | – | pIC50 (Table 1): 4.70 to 5.30
Cn1c(N2CCC(C)(CN)CC2)nc2[nH]nc(N3CCCc4ncccc43)c2c1=O [Compound F1, 6-(4-(aminomethyl)-4-methylpiperidin-1-yl)-3-(3,4-dihydro-1,5-naphthyridin-1(2H)-yl)-5-methyl-1H-pyrazolo[3,4-d]pyrimidin-4(5H)-one, hydrochloride] | – | pIC50 (Table 6): > 6.00

Compound | pIC50 (Table 3) | also measured
CNCC1CCN(C(=O)Cc2csc(-c3ccc(Cl)cc3Cl)n2)C1 (centres unmarked) [Compound C45] | < 3.00 | –
Cn1c(N2CCC(C)(CN)CC2)nc2[nH]nc(N3CCc4ccccc43)c2c1=O [Compound F4, 6-(4-(aminomethyl)-4-methylpiperidin-1-yl)-3-(indolin-1-yl)-5-methyl-1H-pyrazolo[3,4-d]pyrimidin-4(5H)-one] | – | pIC50 (Table 6): > 6.00
COc1cc(-c2nc(CN(C)c3ccc4c(c3)OCO4)cs2)ccc1O [Compound C11] | > 3.30 | –
c1cc(-c2nc(CSc3nncs3)cs2)co1 [Compound C24] | < 3.00 | –
CC1(CN)CCN(c2ncc(-c3ccccc3Cl)s2)C1 (centres unmarked) [Compound B3, (1-(5-(2-chlorophenyl)thiazol-2-yl)-3-methylpyrrolidin-3-yl)methanamine formate] | – | pIC50 (Table 2): < 4.00
CC1(N)CCCN(c2nn3c(N)c(-c4cccc(Cl)c4Cl)nc3s2)C1 (centres unmarked) [Compound A1, 2-(3-amino-3-methylpiperidin-1-yl)-6-(2,3-dichlorophenyl)imidazo[2,1-b][1,3,4]thiadiazol-5-amine formate] | – | pIC50 (Table 1): > 5.30
C[C@@H]1OCC2(CCN(c3nc4[nH]nc(N5CCc6ncccc65)c4c(=O)n3C)CC2)[C@@H]1N [Compound F11, 6-[(3S,4S)-4-amino-3-methyl-2-oxa-8-azaspiro[4.5]decan-8-yl]-5-methyl-3-{1H,2H,3H-pyrrolo[3,2-b]pyridin-1-yl}-1H,4H,5H-pyrazolo[3,4-d]pyrimidin-4-one formate] | – | pIC50 (Table 6): 4.70 to 6.00
C=C(C)CSc1nnc(SCc2csc(-c3ccc(OC)c(OC)c3)n2)s1 [Compound C33] | < 3.00 | –
COc1nc(N2CCC(C)(N)CC2)nc2[nH]nc(-c3cccc(Cl)c3Cl)c12 [Compound F9, 1-[3-(2,3-dichlorophenyl)-4-methoxy-1H-pyrazolo[3,4-d]pyrimidin-6-yl]-4-methyl-piperidin-4-amine] | – | pIC50 (Table 6): > 6.00
CC1(CN)CCN(c2ncnc3c(-c4cccc(Cl)c4Cl)csc23)CC1 [Compound D2, (1-(7-(2,3-dichlorophenyl)thieno[3,2-d]pyrimidin-4-yl)-4-methylpiperidin-4-yl)methanamine] | – | pIC50 (Table 4): 5.00 to 6.00
CC1(N)CCN(c2nc(N)c(-c3cccc(Cl)c3Cl)s2)CC1 [Compound B1, 2-(4-amino-4-methyl-1-piperidyl)-5-(2,3-dichlorophenyl)thiazol-4-amine, dihydrochloride] | – | pIC50 (Table 2): > 4.00
c1nnc(SCc2csc(-c3ccc4c(c3)OCO4)n2)s1 [Compound C13] | > 3.30 | –
COc1ccc(-c2nc(CSc3ncccn3)cs2)cc1OC [Compound C7] | 3.00 to 3.30 | –
Clc1ccccc1-c1coc2ccnn12 [Compound E4, 3-(2-chlorophenyl)pyrazolo[5,1-b]oxazole] | – | pIC50 (Table 5): < 4.00
CC1(CN)CCN(c2nn3c(N)c(-c4cccc(Cl)c4Cl)nc3s2)C1 (centres unmarked) [Compound A5, 2-(3-(aminomethyl)-3-methylpyrrolidin-1-yl)-6-(2,3-dichlorophenyl)imidazo[2,1-b][1,3,4]thiadiazol-5-amine] | – | pIC50 (Table 1): > 5.30
Nc1c(-c2cccc(Cl)c2Cl)nc2sc(N3C[C@@H]4[C@@H](N)[C@@H]4C3)nn12 [Compound A3] | – | pIC50 (Table 1): > 5.30
CC1(CN)CCN(c2ncc(C(=O)N3CCCc4ncccc43)s2)C1 (centres unmarked) [Compound B2, (2-(3-(aminomethyl)-3-methylpyrrolidin-1-yl)thiazol-5-yl)(3,4-dihydro-1,5-naphthyridin-1(2H)-yl)methanone] | – | pIC50 (Table 2): < 4.00
